Experimental data from ChEMBL document CHEMBL1201862, “PubChem BioAssay data set” (2004).
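How tested: cells in 96-well plates exposed to compound for 48 hours at five concentrations. GI50 = concentration required for 50% inhibition of growth.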 Calls of active or inactive are those of the source. Cut-off read from the data, not from the text of the source: active = GI50 up to about 1.1 µM and inactive = higher.

How the values were obtained:
Assay in all cases: inhibition of tumour cell growth, NCI panel, 48 h
CAKI-1 = tested on: CAKI-1
CCRF-CEM = tested on: CCRF-CEM
HOP-92 = tested on: HOP-92
IGROV-1 = tested on: IGROV-1
MCF7 = tested on: MCF7
MDA-MB-435 = tested on: MDA-MB-435
NCI/ADR-RES = tested on: NCI/ADR-RES
OVCAR-3 = tested on: OVCAR-3
OVCAR-4 = tested on: OVCAR-4
RPMI-8226 = tested on: RPMI-8226
RXF 393 = tested on: RXF 393
SF-268 = tested on: SF-268
SF-295 = tested on: SF-295
SK-MEL-28 = tested on: SK-MEL-28
SK-MEL-5 = tested on: SK-MEL-5
SN12C = tested on: SN12C
SR = tested on: SR
T47D = tested on: T47D
UACC-62 = tested on: UACC-62
SK-MEL-2 = tested on: SK-MEL-2

Measured: GI50

Clc1cccc(Cl)c1C1SCC2=Nc3ccccc3CN21 (stereo unspecified)
inactive: CAKI-1 60.3 µM | CCRF-CEM 32.4 µM | HOP-92 40.7 µM | IGROV-1 22.9 µM | MCF7 20.2 µM | MDA-MB-435 27.2 µM | NCI/ADR-RES 19.4 µM | OVCAR-3 15 µM | OVCAR-4 80.4 µM | RPMI-8226 17.1 µM | RXF 393 27.8 µM | SF-268 39.9 µM | SF-295 13.2 µM | SK-MEL-28 23.3 µM | SK-MEL-5 15.8 µM | SN12C 46.7 µM | SR 34.1 µM | T47D 21.4 µM | UACC-62 27.4 µM

O=C1CCCCN1C(=O)c1ccc([N+](=O)[O-])cc1
inactive: CAKI-1 > 100 µM | CCRF-CEM > 100 µM | HOP-92 > 100 µM | IGROV-1 > 100 µM | MCF7 > 100 µM | MDA-MB-435 > 100 µM | NCI/ADR-RES > 100 µM | OVCAR-3 > 100 µM | OVCAR-4 > 100 µM | RPMI-8226 > 100 µM | RXF 393 > 100 µM | SF-268 > 100 µM | SF-295 > 100 µM | SK-MEL-28 > 100 µM | SK-MEL-5 > 100 µM | SN12C 24 µM | SR > 100 µM | T47D > 100 µM | UACC-62 37.3 µM

CC1(O)CC(=O)c2c(cc3ccc(-c4c5c(c(O)c6c(O)cccc46)C(=O)CC(C)(O)C5)c(O)c3c2O)C1 (stereo unspecified)
inactive: SN12C 1.39 µM | UACC-62 1.46 µM
active: CAKI-1 0.401 µM | CCRF-CEM 0.38 µM | HOP-92 0.242 µM | IGROV-1 0.348 µM | MCF7 0.199 µM | MDA-MB-435 0.279 µM | NCI/ADR-RES 0.441 µM | OVCAR-3 0.0953 µM | OVCAR-4 0.27 µM | RPMI-8226 0.0509 µM | RXF 393 < 0.01 µM | SF-268 0.194 µM | SF-295 0.179 µM | SK-MEL-28 0.326 µM | SK-MEL-2 0.271 µM | SK-MEL-5 0.187 µM | SR 0.367 µM | T47D 0.562 µM

c1ccc2c(c1)N=c1cc3c(cc1N2)=NC12CCCCC1CC1=C(CCCC1)N32 (stereo unspecified)
active: SR 0.425 µM
inactive: CAKI-1 6.58 µM | CCRF-CEM 2.12 µM | HOP-92 4.46 µM | IGROV-1 3.4 µM | MCF7 3.3 µM | MDA-MB-435 1.88 µM | NCI/ADR-RES 4.57 µM | OVCAR-3 1.74 µM | OVCAR-4 2.15 µM | RPMI-8226 2.07 µM | RXF 393 1.39 µM | SF-268 4.55 µM | SF-295 9.04 µM | SK-MEL-28 3.3 µM | SK-MEL-2 3.44 µM | SK-MEL-5 1.81 µM | SN12C 2.36 µM | T47D 3.94 µM | UACC-62 3.32 µM

Cn1cnc([N+](=O)[O-])c1Sc1nc(N)nc2c1ncn2[C@H]1C[C@H](O)[C@@H](CO)O1
active: RPMI-8226 1.09 µM | SR 1.07 µM
inactive: CAKI-1 4.05 µM | CCRF-CEM 2.88 µM | HOP-92 17.3 µM | IGROV-1 5.13 µM | MCF7 2.61 µM | MDA-MB-435 2.29 µM | NCI/ADR-RES 1.28 µM | OVCAR-3 3.44 µM | OVCAR-4 2.99 µM | RXF 393 8.32 µM | SF-268 1.77 µM | SF-295 3.11 µM | SK-MEL-28 14.5 µM | SK-MEL-2 2.45 µM | SK-MEL-5 4.08 µM | SN12C 5.16 µM | T47D 7.52 µM | UACC-62 1.51 µM

NC1CC(=O)c2c(Cl)sc(Cl)c21 (stereo unspecified)
active: CCRF-CEM 0.885 µM | SR 0.493 µM
inactive: CAKI-1 2.7 µM | HOP-92 1.47 µM | IGROV-1 4.12 µM | MCF7 1.82 µM | MDA-MB-435 4.62 µM | NCI/ADR-RES 15 µM | OVCAR-3 6.47 µM | OVCAR-4 6.44 µM | RPMI-8226 2.37 µM | RXF 393 1.45 µM | SF-268 15.8 µM | SF-295 14 µM | SK-MEL-28 1.73 µM | SK-MEL-2 12.4 µM | SK-MEL-5 8.79 µM | SN12C 2.05 µM | T47D 1.74 µM | UACC-62 2.64 µM

COC(=O)[C@]1(C)CCC[C@@]2(C)C1CC[C@]13C=C(C(C)C)[C@H](CC21)CC3(Cl)C#N (stereo partly specified)
inactive: CAKI-1 66.1 µM | CCRF-CEM 20.7 µM | HOP-92 > 100 µM | IGROV-1 > 100 µM | MCF7 27.4 µM | MDA-MB-435 42.6 µM | NCI/ADR-RES 57.7 µM | OVCAR-3 35 µM | OVCAR-4 54.6 µM | RXF 393 24.8 µM | SF-268 46.3 µM | SF-295 41.4 µM | SK-MEL-28 36.1 µM | SK-MEL-5 37.8 µM | SN12C 51.1 µM | SR 32.1 µM | T47D 14.1 µM | UACC-62 37.7 µM
